≈ marks a conversion by molar mass, not a printed value.
Legend:
Type in all cases: cell-based
[1] = system: S. aureus ATCC 29213; experiment: Antimicrobial susceptibility test (MIC), micro-dilution broth; conditions: S. aureus ATCC 29213
Text: (§1) Bacterial strains. S. aureus ATCC 29213, E. coli MG1655, E. coli BAA-2340, E. coli BAA-2469, E. coli BAA-2471, E. cloacae BAA-2341, E. cloacae BAA-2468, K. pneumoniae BAA-1705, K. pneumoniae BAA-2342, K. pneumoniae BAA-2470, K. pneumoniae BAA-2472, and K. pneumoniae BAA-2473 were obtained from ATCC. E. coli JW5503 and E. coli JW3596 were obtained from the KEIO Collection. E. cloacae ATCC 29893 was provided by W. van der Donk (UIUC). E. coli AR-0346, E. coli AR-0349, E. coli AR-0493, E. coli AR-0495, and K. pneumoniae AR-0347 were obtained from the CDC and FDA AR Isolate Bank. E. coli F20987, E. coli M66623, E. cloacae S28901.1, K. pneumoniae M14723, K. pneumoniae M67198, K. pneumoniae M67297, K. pneumoniae S20595, K. pneumoniae S47889, A. baumannii W41979, A. baumannii F19521, A. baumannii M13100, and A. baumannii WO22 were obtained from the University of Illinois Chicago Medical School. A. baumannii KB304, A. baumannii KB343, and A. baumannii KB357 were provided by J. Quale.
(§2) Antimicrobial susceptibility tests. Susceptibility testing was performed in biological triplicate, using the micro-dilution broth method as outlined by the Clinical and Laboratory Standards Institute. Bacteria were cultured with cation-adjusted Muller-Hinton broth (Sigma-Aldrich, Cat# 90922) in round-bottom 96-well plates (Corning, Cat# 3788). Human serum (pooled gender, 0.2 μm filtered) was purchased from BioIVT (Hicksville, NY).

[2] = system: E. coli ΔtolC (JW5503); conditions: for MIC E. coli ΔtolC: efflux deficient E. coli ΔtolC
Procedure: (§3) The compounds synthesized, shown in Table 1, were evaluated against Gram-positive and Gram-negative reference strains (S. aureus 29213 and E. coli MG1655, respectively), as well as an efflux deficient E. coli strain (ΔtolC, JW5503).
as §1, §2

[3] = system: E. coli MG1655; experiment: Antimicrobial susceptibility test (MIC)
Text: as §1, §2

[4] = system: K. pneumoniae AR 0560; experiment: microbe, parasite or virus in culture; conditions: clinical isolate
Procedure: as §2

[5] = system: K. pneumoniae AR 0113; experiment: microbe, parasite or virus in culture; conditions: clinical isolate
Procedure: as §2

[6] = system: A. baumannii AR 0273; experiment: microbe, parasite or virus in culture; conditions: clinical isolate
Procedure: as §2

[7] = system: A. baumannii AR 0313; experiment: microbe, parasite or virus in culture; conditions: clinical isolate
Procedure: as §2

[8] = system: A. baumannii AR 0299; experiment: microbe, parasite or virus in culture; conditions: clinical isolate
Procedure: as §2

[9] = system: E. coli AR 0048; experiment: microbe, parasite or virus in culture; conditions: clinical isolate
Procedure: as §2

[10] = system: A. baumannii AR 0033; experiment: microbe, parasite or virus in culture; conditions: clinical isolate
Procedure: as §2

[11] = system: E. coli AR 0085; experiment: microbe, parasite or virus in culture; conditions: clinical isolate
Procedure: as §2

[12] = system: K. pneumoniae AR 0066; experiment: microbe, parasite or virus in culture; conditions: clinical isolate
Procedure: as §2

[13] = system: K. pneumoniae BAA 2472; experiment: microbe, parasite or virus in culture; conditions: clinical isolate
Procedure: as §3, §1, §2

In the case of `Cc1c(CN(C)C(=O)C=Cc2cnc3c(c2)CC2(CCC(CN)CC2)C(=O)N3)oc2ccccc12` (mixture of isomers) [(±)-9], the “MIC S. aureus 29213” value [1] is reported as 0.031 µg/mL, the “MIC E. coli ΔtolC” value [2] is reported as 0.062 µg/mL and the “MIC E. coli MG1655” value [3] is reported as 16 µg/mL.
In the case of `Cc1c(CN(C)C(=O)/C=C/c2cnc3c(c2)CC(CN)C(=O)N3)oc2ccccc12.Cl` (racemic), the “MIC S. aureus 29213” value [1] is reported as 0.031 µg/mL, the “MIC E. coli ΔtolC” value [2] is reported as 0.125 µg/mL and the “MIC E. coli MG1655” value [3] is reported as 8 µg/mL.
With `Cc1c(CN(C)C(=O)/C=C/c2cnc3c(c2)CC(CCN)C(=O)N3)oc2ccccc12.Cl` (racemic) the “MIC S. aureus 29213” value [1] was 0.016 µg/mL, the “MIC E. coli ΔtolC” value [2] was 0.062 µg/mL and the “MIC E. coli MG1655” value [3] was 8 µg/mL.
With `Cc1c(CN(C)C(=O)/C=C/c2cnc3c(c2)CCC(CCN)C(=O)N3)oc2ccccc12` (racemic) [(±)-13] the “MIC S. aureus 29213” value [1] was 0.062 µg/mL (≈ 0.143 µM), the “MIC E. coli ΔtolC” value [2] was 0.125 µg/mL (≈ 0.289 µM) and the “MIC E. coli MG1655” value [3] was 32 µg/mL (≈ 74 µM).
In the case of `Cc1c(CN(C)C(=O)/C=C/c2cnc3c(c2)CCC(N)C(=O)N3)oc2ccccc12` (racemic) [drawing 87], the “MIC S. aureus 29213” value [1] is reported as 0.016 µg/mL (≈ 0.0396 µM), the “MIC E. coli ΔtolC” value [2] is reported as 0.031 µg/mL (≈ 0.0766 µM) and the “MIC E. coli MG1655” value [3] is reported as 4 µg/mL (≈ 9.89 µM).
With `Cc1c(CN(C)C(=O)/C=C/c2cnc3c(c2)CCC(N)C(=O)N3)oc2ccccc12` (racemic) [drawing 108] the “MIC S. aureus 29213” value [1] was 0.016 µg/mL (≈ 0.0396 µM), the “MIC E. coli ΔtolC” value [2] was 0.031 µg/mL (≈ 0.0766 µM) and the “MIC E. coli MG1655” value [3] was 4 µg/mL (≈ 9.89 µM).
`Cc1c(CN(C)C(=O)/C=C/c2cnc3c(c2)CC(N)C(=O)N3)oc2ccccc12.Cl` (racemic) [reference compound] was tested, and the “MIC S. aureus 29213” value [1] was 0.03125 µg/mL, the “MIC E. coli ΔtolC” value [2] was 0.062 µg/mL and the “MIC E. coli MG1655” value [3] was 4 µg/mL.
`Cc1c(CN(C)C(=O)/C=C/c2ccc3c(c2)CCC(N)C(=O)N3)oc2ccccc12` (single isomer, unassigned) [Isomer 1] was tested, and the “MIC K. pneumoniae AR 0560” value [4] was greater than 32 µg/mL, the “MIC K. pneumoniae AR 0113” value [5] was greater than 32 µg/mL and the “MIC A. baumannii AR 0273” value [6] was greater than 32 µg/mL. The “MIC A. baumannii AR 0313” value [7] was greater than 32 µg/mL, the “MIC A. baumannii AR 0299” value [8] was greater than 32 µg/mL and the “MIC E. coli AR 0048” value [9] was greater than 32 µg/mL. For the same molecule, the “MIC A. baumannii AR 0033” value [10] was greater than 32 µg/mL, the “MIC E. coli AR 0085” value [11] was greater than 32 µg/mL and the “MIC K. pneumoniae AR 0066” value [12] was greater than 32 µg/mL. The “MIC K. pneumoniae BAA 2472” value [13] was greater than 32 µg/mL.
`Cc1c(CN(C)C(=O)/C=C/c2ccc3c(c2)CCC(N)C(=O)N3)oc2ccccc12` (single isomer, unassigned) [Isomer 2] was tested, and the “MIC K. pneumoniae AR 0560” value [4] was 4 µg/mL (≈ 9.91 µM), the “MIC K. pneumoniae AR 0113” value [5] was 8 µg/mL (≈ 19.8 µM) and the “MIC A. baumannii AR 0273” value [6] was 4 µg/mL (≈ 9.91 µM). The “MIC A. baumannii AR 0313” value [7] was 4 µg/mL (≈ 9.91 µM), the “MIC A. baumannii AR 0299” value [8] was 2 µg/mL (≈ 4.96 µM) and the “MIC E. coli AR 0048” value [9] was 4 µg/mL (≈ 9.91 µM). For the same molecule, the “MIC A. baumannii AR 0033” value [10] was 2 µg/mL (≈ 4.96 µM), the “MIC E. coli AR 0085” value [11] was 2 µg/mL (≈ 4.96 µM) and the “MIC K. pneumoniae AR 0066” value [12] was 4 µg/mL (≈ 9.91 µM). The “MIC K. pneumoniae BAA 2472” value [13] was 4 µg/mL (≈ 9.91 µM).
In the case of `Cc1c(CN(C)C(=O)/C=C/c2cnc3c(c2)CCC(N)C(=O)N3)oc2ccccc12` (single isomer, unassigned) [drawing 109], the “MIC S. aureus 29213” value [1] is reported as 0.125 to 0.250 µg/mL, the “% @ 1 (in brackets after MIC)” value ([2]; E. coli ΔTolC, 1 μg/mL) is reported as 50% and the “MIC E. coli ΔtolC” value [2] is reported as greater than 1 µg/mL. The “MIC E. coli MG1655” value [3] was greater than 32 µg/mL and the “% @ 32 (in brackets after MIC)” value ([3]; E. coli MG1655, 32 μg/mL) was 20%.
In the case of `Cc1c(CN(C)C(=O)/C=C/c2cnc3c(c2)CCC(N)C(=O)N3)oc2ccccc12` (single isomer, unassigned) [drawing 110], the “MIC S. aureus 29213” value [1] is reported as 0.004 to 0.008 µg/mL, the “% @ 0.016 (in brackets after MIC)” value ([2]; E. coli ΔTolC, 0.016 μg/mL) is reported as 40-95% and the “MIC E. coli ΔtolC” value [2] is reported as 0.031 µg/mL (≈ 0.0766 µM). For the same molecule, the “MIC E. coli MG1655” value [3] was 2 µg/mL (≈ 4.94 µM).
`Cc1c(CN(C)C(=O)/C=C/c2cnc3c(c2)CCC(=O)N3)oc2ccccc12` [drawing 82, reference compound] was tested, and the “MIC S. aureus 29213” value [1] was 0.008 to 0.016 µg/mL and the “MIC E. coli ΔtolC” value [2] was 0.031 µg/mL (≈ 0.0826 µM).
For `Cc1c(CN(C)C(=O)/C=C/c2cnc3c(c2)CC2(CNC2)C(=O)N3)oc2ccccc12` [drawing 106], the “MIC K. pneumoniae AR 0560” value [4] was 16 µg/mL (≈ 38.4 µM), the “MIC K. pneumoniae AR 0113” value [5] was 16 µg/mL (≈ 38.4 µM) and the “MIC A. baumannii AR 0273” value [6] was 16 µg/mL (≈ 38.4 µM). For the same molecule, the “MIC A. baumannii AR 0313” value [7] was 16 µg/mL (≈ 38.4 µM), the “MIC A. baumannii AR 0299” value [8] was 16 µg/mL (≈ 38.4 µM) and the “MIC E. coli AR 0048” value [9] was 8 µg/mL (≈ 19.2 µM). For the same molecule, the “MIC A. baumannii AR 0033” value [10] was 8 µg/mL (≈ 19.2 µM), the “MIC E. coli AR 0085” value [11] was 4 µg/mL (≈ 9.6 µM) and the “MIC K. pneumoniae AR 0066” value [12] was 8 µg/mL (≈ 19.2 µM). The “MIC K. pneumoniae BAA 2472” value [13] was 8 µg/mL (≈ 19.2 µM).

Source: patent US20240190872A1, “FABI INHIBITORS FOR GRAM-NEGATIVE PATHOGENS” (THE BOARD OF TRUSTEES OF THE UNIVERSITY OF ILLINOIS, priority 2021, published 2024)
